Data reported in ChEMBL document CHEMBL5338723, “Emerging Target-Directed Approaches for the Treatment and Diagnosis of Microbial Infections” (J Med Chem, 2023).
≈ marks a conversion by molar mass, not a printed value. *1 amine or outer side, *2 acyl side, *3 side chain or, on linkers, in order; H or OH if unused. Where a SMILES comes first, the peptide text is derived from it. [ ]: non-standard residue; d: D form. X2 = Cn1c(=O)n([C@@H]2S[C@H]([C@@H](O)[C@@H](N[*:1])C(=O)[*:2])[C@H](O)[C@H]2O)cc/c1=N/C(N)=O; Orn(N5-OH,N5-Ac) = CC(=O)N(O)CCC[C@H](N)C(=O)O

What was measured:
Yersinia enterocolitica = test: Antimicrobial activity against Yersinia enterocolitica assessed as microbial growth inhibition; format: functional
Streptococcus pneumoniae = test: Antimicrobial activity against Streptococcus pneumoniae assessed as microbial growth inhibition; format: functional
[1] = Cytotoxicity against human L02 assessed as lethal dose; format: toxicity, cell-based; conditions: L02 cells, read-out: LD50 (the source's name)
Escherichia coli [2] = test: Antibacterial activity against Escherichia coli assessed as microbial growth inhibition; format: functional
Acinetobacter baumannii = test: Antimicrobial activity against Acinetobacter baumannii assessed as microbial growth inhibition; format: functional
[3] = tested on: Acinetobacter genomosp. 13TU; test: Antimicrobial activity against Acinetobacter nosocomialis assessed as microbial growth inhibition; format: functional
Escherichia coli [4] = test: Antibacterial activity against wild type Escherichia coli assessed as microbial growth inhibition; format: functional, organism-based
Escherichia coli [5] = test: Antibacterial activity against enterobactin-deficient Escherichia coli harboring delta entB assessed as microbial growth inhibition; format: functional, organism-based
Escherichia coli [6] = test: Antibacterial activity against enterobactin-deficient Escherichia coli harboring delta entA assessed as microbial growth inhibition; format: functional, organism-based
Escherichia coli [7] = test: Antimicrobial activity against Escherichia coli UTI89 expressing TEM-1 assessed as microbial growth inhibition in the presence of bathocuproinedisulfonic acid; format: functional
Escherichia coli [8] = test: Antimicrobial activity against Escherichia coli UTI89 expressing CTX-M-1 assessed as microbial growth inhibition in the presence of bathocuproinedisulfonic acid; format: functional
Escherichia coli [9] = test: Antibacterial activity against Escherichia coli UTI89 assessed as inhibition of bacterial growth; format: functional
Escherichia coli [10] = test: Antibacterial activity against Escherichia coli MG1655 expressing CMY-2 assessed as inhibition of bacterial growth; format: functional
Escherichia coli [11] = test: Antimicrobial activity against Escherichia coli MG1655 expressing CMY-2 assessed as microbial growth inhibition in the presence of bathocuproinedisulfonic acid; format: functional
Escherichia coli [12] = test: Antimicrobial activity against Escherichia coli MG1655 expressing CTX-M-1 assessed as microbial growth inhibition in the presence of bathocuproinedisulfonic acid; format: functional
Escherichia coli [13] = test: Antibacterial activity against Escherichia coli UTI89 expressing CTX-M-1 assessed as inhibition of bacterial growth; format: functional
[14] = Cytotoxicity against human HepG2 cells assessed as lethal dose by CellTox Green cytotoxicity assay; format: toxicity, cell-based; conditions: read-out: LD50 (the source's name)
Escherichia coli [15] = test: Antibacterial activity against Escherichia coli UTI89 expressing CMY-2 assessed as inhibition of bacterial growth; format: functional
Escherichia coli [16] = test: Antibacterial activity against Escherichia coli UTI89 expressing NDM-1 assessed as inhibition of bacterial growth; format: functional
Escherichia coli [17] = test: Antimicrobial activity against Escherichia coli MG1655 expressing TEM-1 assessed as microbial growth inhibition in the presence of bathocuproinedisulfonic acid; format: functional
Escherichia coli [18] = test: Antibacterial activity against Escherichia coli MG1655 expressing CTX-M-1 assessed as inhibition of bacterial growth; format: functional
[19] = Cytotoxicity against human CCD 19Lu cells assessed as lethal dose by CellTox Green cytotoxicity assay; format: toxicity, cell-based; conditions: read-out: LD50 (the source's name)
Escherichia coli [20] = test: Antimicrobial activity against Escherichia coli MG1655 expressing NDM-1 assessed as microbial growth inhibition in the presence of bathocuproinedisulfonic acid; format: functional
Escherichia coli [21] = test: Antimicrobial activity against Escherichia coli UTI89 expressing NDM-1 assessed as microbial growth inhibition in the presence of bathocuproinedisulfonic acid; format: functional
Escherichia coli [22] = test: Antibacterial activity against Escherichia coli MG1655 expressing NDM-1 assessed as inhibition of bacterial growth; format: functional
Escherichia coli [23] = test: Antibacterial activity against Escherichia coli MG1655 assessed as inhibition of bacterial growth; format: functional
Escherichia coli [24] = test: Antimicrobial activity against Escherichia coli UTI89 expressing CMY-2 assessed as microbial growth inhibition in the presence of bathocuproinedisulfonic acid; format: functional
Escherichia coli [25] = test: Antimicrobial activity against Escherichia coli assessed as microbial growth inhibition; format: functional
Bacillus subtilis = test: Antimicrobial activity against Bacillus subtilis assessed as microbial growth inhibition; format: functional
Staphylococcus aureus [26] = test: Antimicrobial activity against Staphylococcus aureus assessed as microbial growth inhibition; format: functional
Staphylococcus aureus [27] = test: Antibacterial activity against Staphylococcus aureus assessed as microbial growth inhibition; format: functional, organism-based
Staphylococcus aureus [28] = test: Potency index, ratio of ciprofloxacin MIC to test compound MIC for antimicrobial activity against Staphylococcus aureus; format: functional, organism-based

Molecule `CN(Cc1cnc2nc(N)nc(N)c2n1)c1ccc(C(=O)N[C@@H](CCC(=O)O)C(=O)O)cc1` [METHOTREXATE] has an MIC (Yersinia enterocolitica) of over 35.2 µM, an MIC (Streptococcus pneumoniae) of at least 2.2 µM and a CC50 [1] of 8 nM.
`CCCCCCCCCC(=O)N[C@@H](Cc1c[nH]c2ccccc12)C(=O)N[C@H](CC(N)=O)C(=O)N[C@@H](CC(=O)O)C(=O)N[C@@H]1C(=O)NCC(=O)N[C@@H](CCCNC(=O)[C@H](CCSC)NC(=O)[C@H](Cc2ccc(O)cc2)NC(=O)[C@H](CCCCN)NC(=O)[C@@H]2CCCN2C(=O)[C@H](CO)NC(=O)[C@H](Cc2c[nH]c3ccccc23)NC(=O)CN(CCCCNC(=O)c2cccc(O)c2O)C(=O)c2cccc(O)c2O)C(=O)N[C@@H](CC(=O)O)C(=O)N[C@H](C)C(=O)N[C@@H](CC(=O)O)C(=O)NCC(=O)N[C@H](CO)C(=O)N[C@@H](C(C)CC(=O)O)C(=O)N[C@@H](CC(=O)c2ccccc2N)C(=O)O[C@@H]1C` (stereo partly drawn) gave an MIC (Escherichia coli [2]) of 1 µM (≈ 2.81 µg/mL), an MIC (Acinetobacter baumannii) of 1 µM (≈ 2.81 µg/mL) and an MIC [3] of 1 µM (≈ 2.81 µg/mL).
With `CC(=O)Oc1cccc(C(=O)NCCNC(=O)CN2CCN(CC(=O)NCCCC(=O)NC(C(=O)N[C@@H]3C(=O)N4[C@@H]3SC(C)(C)[C@@H]4C(=O)O)c3ccccc3)CCN(CC(=O)NCCNC(=O)c3cccc(OC(C)=O)c3OC(C)=O)CCN(CC(=O)NCCNC(=O)c3cccc(OC(C)=O)c3OC(C)=O)CC2)c1OC(C)=O` (stereo partly drawn) the IC50 (Escherichia coli [4]) was 30200 nM, the IC50 (Escherichia coli [5]) was 2100 nM and the IC50 (Escherichia coli [6]) was 2100 nM.
For `O=C(Cc1ccccc1)N[C@@H]1C(=O)N2C(C(=O)O)=C(CSc3ccccn3)CS[C@H]12`, the MIC (Escherichia coli [7]) was over 140 µM, the MIC (Escherichia coli [8]) was over 140 µM and the MIC (Escherichia coli [9]) was 35 µM (≈ 15.5 µg/mL). The MIC (Escherichia coli [10]) was 17.5 µM (≈ 7.73 µg/mL), the MIC (Escherichia coli [11]) was over 140 µM and the MIC (Escherichia coli [12]) was over 140 µM. It also gave an MIC (Escherichia coli [13]) of 17.5 µM (≈ 7.73 µg/mL), a CC50 [14] of over 500000 nM and an MIC (Escherichia coli [15]) of 17.5 µM (≈ 7.73 µg/mL). For the same molecule, the MIC (Escherichia coli [16]) was 17.5 µM (≈ 7.73 µg/mL), the MIC (Escherichia coli [17]) was over 140 µM and the MIC (Escherichia coli [18]) was 17.5 µM (≈ 7.73 µg/mL). The CC50 [19] was over 500000 nM, the MIC (Escherichia coli [20]) was over 140 µM and the MIC (Escherichia coli [21]) was over 140 µM. For the same molecule, the MIC (Escherichia coli [22]) was 17.5 µM (≈ 7.73 µg/mL), the MIC (Escherichia coli [23]) was 35 µM (≈ 15.5 µg/mL) and the MIC (Escherichia coli [24]) was over 140 µM.
For `CC(=O)N(O)CCC[C@H](NC(=O)[C@H](CCCN(O)C(C)=O)NC(=O)[C@@H](N)CCCN(O)C(C)=O)C(=O)N[C@@H](CO)C(=O)N[C@@H](C(=O)O)[C@H](O)[C@H]1S[C@@H](n2cc/c(=N/C(N)=O)n(C)c2=O)[C@H](O)[C@H]1O` (H-[Orn(N5-OH,N5-Ac)][Orn(N5-OH,N5-Ac)][Orn(N5-OH,N5-Ac)]S[X2]-OH), the MIC (Escherichia coli [25]) was 0.031 µg/mL (≈ 0.0312 µM), the MIC (Bacillus subtilis) was 0.063 µg/mL (≈ 0.0634 µM) and the MIC (Streptococcus pneumoniae) was 0.063 µg/mL. It also gave an MIC (Staphylococcus aureus [26]) of 0.063 µg/mL (≈ 0.0634 µM).
In the case of Galbofloxacin, the MIC (Staphylococcus aureus [27]) is reported as 0.093 µM and the Ratio (Staphylococcus aureus [28]) is reported as 10.
